Data set [1] deals with Entamoeba histolytica. The data set can be described thus: Antiamoebic activity against Entamoeba histolytica HM-1:IMSS trophozoites after 72 hrs by microdilution method. It counts as functional, organism-based.
Data set [2] relates to MCF7. The data set can be described thus: Cytotoxicity against human MCF7 cells after 48 hrs by MTT assay. To be noted: MCF7, 48 h. It counts as cell-based.
The subject of data set [3] is MCF7. Nature of the data set: Cytotoxicity against human MCF7 cells assessed as cell viability at 250 uM after 48 hrs by MTT assay. It counts as cell-based. Conditions: mcf7, 48 h. For orientation: Formazan colour is commonly taken as a measure of viable cells.
A short description of data set [4]: Cytotoxicity against human MCF7 cells assessed as cell viability at 2.5 to 100 uM after 48 hrs by MTT assay. The data set is classed as cell-based. To be noted: read-out: Activity.

As for `S=C(N1CCC(Cc2ccccc2)CC1)N1CCC(c2cccc(Cl)c2)=N1`, in data set [1], the IC50 is 1000 nM.
`O=[N+]([O-])c1ccc(/C=N/n2c(S)nnc2-c2ccccc2)cc1`: the concentration for half-maximal inhibition (IC50) is 280 nM in data set [1] and more than 250000 nM in data set [2]. The Activity result in data set [3] was “Non-toxic”. Besides, in data set [4], the viability at 48 h, up to 100 µM was 60%.
`Cc1nnc2n(NC(=S)NC34CC5CC(CC(C5)C3)C4)c(C)nnc1-2`: the IC50 in data set [1] stood at 840 nM.
On to `NNC(N)=S` [THIOSEMICARBAZIDE], for which it took 2290 nM to reach half-maximal inhibition in data set [1] (IC50).
The same measure, in the same setting: under `Oc1ccc(/C=N/n2c(-c3ccccc3)n[nH]c2=S)cc1` stands 10200 nM.
For `CN(C)c1ccc(/C=N/n2c(S)nnc2-c2ccccc2)cc1`, the values for the IC50 in data set [1] and in data set [2] were 309 nM and more than 250000 nM, respectively. Further, the Activity entry in data set [3] is given as “Non-toxic”. Moreover, in data set [4], the viability at 48 h, up to 100 µM stood at 65%.
In data set [1], `O=[N+]([O-])c1ccc(/C=N/NC(=S)N2CCCCCCC2)s1` gave a half-inhibitory concentration (IC50) of 1710 nM.
`COc1cc(/C=N/n2c(S)nnc2-c2ccccc2)cc(OC)c1OC` had an IC50 in data set [1] of 2700 nM.
`COc1ccc(OC)c(/C=N/n2c(S)nnc2-c2ccccc2)c1` yielded a concentration for half-maximal inhibition (IC50) in data set [1] of 8790 nM.
With `COc1ccc(/C=N/n2c(S)nnc2-c2ccccc2)cc1`, the values for the half-maximal inhibitory concentration (IC50) in data set [1] and in data set [2] were 322 nM and more than 250000 nM, respectively. Besides, the Activity result in data set [3] is reported as “Non-toxic”. In data set [4], the viability at 48 h, up to 100 µM was found to be 60%.
For `Cc1ccc(/C=N/n2c(S)nnc2-c2ccccc2)cc1` the same measures were 1380 nM, more than 250000 nM, “Non-toxic” and 65%.
`Cc1ncc([N+](=O)[O-])n1CCO` [METRONIDAZOLE] yielded an IC50 in data set [2] of more than 250000 nM. Also, the Activity result in data set [3] is reported as “Non-toxic”. The viability at 48 h, up to 100 µM in data set [4] was more than 70%.
In turn, `Nn1c(S)nnc1-c1ccccc1` showed an IC50 in data set [1] of 10800 nM.
On the same count and under the same terms, under `COc1cc(/C=N/n2c(-c3ccccc3)n[nH]c2=S)ccc1O` stands 3050 nM; under `FC(F)(F)c1ccccc1/C=N/n1c(S)nnc1-c1ccccc1`, 4680 nM.
The same measure, in the same setting: under `S=c1[nH]nc(-c2ccccc2)n1/N=C/c1ccc(Cl)cc1` stands 9550 nM.

What is called IC50 is the midpoint of a concentration-inhibition curve. A low value points to inhibition by little substance.

Values taken from ChEMBL document CHEMBL2016467, “Thiosemicarbazone fragment embedded within 1,2,4-triazole ring as inhibitors of Entamoeba histolytica” (Bioorg Med Chem Lett, 2012).
